Experimental data published in EP4100520B1, “SYSTEM AND METHOD OF TR[…] STATES INFORMATION, […] MACR[…]” (Beznosiuk, Jaroslaw, priority 2020, dated 2021).

Assays:
human muscle enolase = molecular target: T1, human muscle enolase (Homo sapiens, UniProt P13929); assay: Enolase glycation with methylglyoxal: specific activity of enolase (absorbance increase at 240 nm, 2-PGA to PEP); assay type: biochemical; details: for K(1)i / K(1)0 / K(1)i / K(2)i: K1, without entanglement elements; for K(1)i / K(1)0 / Wi / W0: activity relative to own initial value; for Wi / W0 / Wi / K(2)i: W, with entanglement elements
T1 construct: Enolase was isolated from human muscle tissue using own method; from tissue; host or cells: human muscle tissue
T1 sequence (P13929 whole entry): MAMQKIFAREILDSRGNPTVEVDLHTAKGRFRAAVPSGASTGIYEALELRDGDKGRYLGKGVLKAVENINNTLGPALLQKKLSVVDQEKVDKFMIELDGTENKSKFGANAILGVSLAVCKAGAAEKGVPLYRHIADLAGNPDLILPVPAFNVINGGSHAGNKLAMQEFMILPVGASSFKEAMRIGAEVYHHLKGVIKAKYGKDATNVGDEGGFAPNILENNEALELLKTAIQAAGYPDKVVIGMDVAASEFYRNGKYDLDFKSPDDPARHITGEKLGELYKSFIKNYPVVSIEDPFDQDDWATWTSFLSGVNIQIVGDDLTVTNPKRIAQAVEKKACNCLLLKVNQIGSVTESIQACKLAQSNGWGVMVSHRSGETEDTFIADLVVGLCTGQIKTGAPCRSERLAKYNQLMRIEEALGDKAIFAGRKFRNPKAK
Description: Methylglyoxal was chosen as an enolase modifying agent because it is formed in the body mainly as a product of defective glycolysis or in the lipid peroxidation process, as well as a result of disorders of defence systems against carbonyl and oxidative stress. Simultaneously, enolase glycation was performed without exposure to the second entanglement elements 9, 9a of the second and third pair of entanglement elements. The second control was a sample of enolase that was not glycated and not treated with the second entanglement elements 9, 9a of the second and third pair of entanglement elements.
The second entanglement elements 9, 9a of the second and third pair of entanglement elements were aluminium plates, 1 cm by 2 cm in size, which were kept for 30 min at room temperature prior to testing. Enolase was isolated from human muscle tissue using own method (Bednarz-Misa I, Pietkiewicz J, et al., 2009. Adv.Clin.Exp.Med. Vol.18 no.1; p.71-78). The enzyme stock solution was a preparation of 7.5 mM of imidazole-HCl, pH 6.8, in stabilizing buffer, containing 2.5 mM of MgSO4, 50 mM of NaCl, 50% of glycerol (formulation stored at 4°C). The concentration of enolase in the stock solution Ro was 8 mg/ml (87 µM), while the enzyme specific activity was 25 IU/mg. In glycation mixtures, the enzyme concentration was 1 mg/ml (Ro diluted 8x with PBS buffer, pH 7.4).
In the experiment, a standard test buffer of 50 mM imidazole-HCl pH 6.8.3 mM MgSO4, 0.4M KCI and a substrate of 2-PGA (sodium salt) dissolved in H2O - a stock solution R0 at a concentration of 58.5 mM was used. 2-PGA in the enzyme assay was used at a standard concentration of 1 mM.
Protein concentration was determined spectrophotometrically by measuring the absorbance of enolase solution at 280 nm wavelength using quartz cuvettes. In the present system, quartz cuvettes constituted the end tanks 10 made of polar dielectric 5. Enolase activity was determined by monitoring in a Jasco UV-Vis V-530 spectrophotometer within 60 seconds, the increase in absorbance of the test solution at 240 nm wavelength (a measure of reaction product production, PEP). The specific activity of the enzyme was expressed in international units relative to 1 mg of protein (Bednarz-Misa I, Pietkiewicz J, et al., 2009. Adv.Clin.Exp.Med. 18(1);71-78).
Two glycation systems were prepared using a large excess of methylglyoxal in relation to enolase (ratio 1:300 mol:mol) - in accordance with the conditions according to [Pietkiewicz J. et al., 2011, Protein J. 30 (3):149-158]: • a) Substantive test: glycation of enolase treated with second entanglement elements 9, 9a of the second and third pair of entanglement elements.
175 µl of PBS pH 7.4 buffer were placed in the quartz cuvette, 20 µl of enolase stock solution and 5.5 µl of 0.8% aqueous methylglyoxal solution were added. In such a system, the effect of quantum information transmitted from source medium 2 (silicon monocrystal) on the modification of the glycolysis/gluconeogenesis enzyme enolase by methylglyoxal as a reactive glycating agent was studied.
In order to transmit quantum information from the source medium 2, the mixture was subjected for 3 hours to two second entanglement elements 9, 9a of the second and third pair of entanglement elements (which adhered to both sides of the cuvette). The system was kept at room temperature. b) Control test 1: glycation of enolase not treated with second entanglement elements 9, 9a of the second and third pairs of entanglement elements.
The reaction system was prepared as a substantive test (a). Incubation at room temperature occurred at the same time, without contact with the second entanglement elements 9, 9a of the second and third pair of entanglement elements (3 m distance from the substantive test). c) Control test 2: Unmodified enolase, not treated with second entanglement elements 9, 9a of the second and third pair of entanglement elements. […]

enolase = molecular target: T2, enolase (Homo sapiens, UniProt P13929); assay: Electrophoresis to detect high molecular weight advanced glycation products (AGE) of enolase; details: 3 h glycation
T2 construct: Enolase was isolated from human muscle tissue using own method; from tissue; host or cells: human muscle tissue
T2 sequence (P13929 whole entry): as above
Description: The glycation process was interrupted after 3 hours by adding an aqueous solution of lysine at a concentration of 4 mg/ml to methylglyoxal samples (excess lysine bound unreacted methylglyoxal).
In order to detect the presence of high molecular weight products of advanced glycation of enolase (AGE), samples of each mixture were electrophoresized. Electrophoresis conditions according to [Pietkiewicz J. et al., 2011, Protein J. 30 (3):149-158]. 12 ug of protein from the analyzed samples was applied to the gel paths.

[1] = relative to unmodified enolase control K2 at same time, 1 h
[2] = relative to unmodified enolase control K2 at same time, 2 h
[3] = relative to unmodified enolase control K2 at same time, 3 h

Compound: CC(=O)C=O [methylglyoxal]
- Activity (human muscle enolase; Control test 1 (K1): enolase + methylglyoxal (1:300 mol:mol), without entanglement elements, incubation time 0 h, room temperature): 24.6 IU/mg
- Activity (human muscle enolase; Control test 1 (K1): enolase + methylglyoxal, without entanglement elements, incubation time 1 h): 21.37 IU/mg
- Activity (human muscle enolase; Control test 1 (K1): enolase + methylglyoxal, without entanglement elements, incubation time 2 h): 19.15 IU/mg
- Activity (human muscle enolase; Control test 1 (K1): enolase + methylglyoxal, without entanglement elements, incubation time 3 h): 17.64 IU/mg
- K(1)i / K(1)0 (human muscle enolase; 0 h): 100%
- K(1)i / K(1)0 (human muscle enolase; 1 h): 86.9%
- K(1)i / K(1)0 (human muscle enolase; 2 h): 77.85%
- K(1)i / K(1)0 (human muscle enolase; 3 h): 71.7%
- K(1)i / K(2)i (human muscle enolase; activity relative to unmodified enolase control K2 at same time, 0 h): 99.6%
- K(1)i / K(2)i (human muscle enolase; [1]): 93.8%
- K(1)i / K(2)i (human muscle enolase; [2]): 88.8%
- K(1)i / K(2)i (human muscle enolase; [3]): 90.6%
- Activity (human muscle enolase; Substantive test (W): enolase + methylglyoxal + entanglement elements, incubation time 0 h, room temperature): 29.22 IU/mg
- Activity (human muscle enolase; Substantive test (W): enolase + methylglyoxal + entanglement elements, incubation time 1 h): 25.78 IU/mg
- Activity (human muscle enolase; Substantive test (W): enolase + methylglyoxal + entanglement elements, incubation time 2 h): 24.12 IU/mg
- Activity (human muscle enolase; Substantive test (W): enolase + methylglyoxal + entanglement elements, incubation time 3 h): 23.4 IU/mg
- Wi / W0 (human muscle enolase; 0 h): 100%
- Wi / W0 (human muscle enolase; 1 h): 88.2%
- Wi / W0 (human muscle enolase; 2 h): 82.5%
- Wi / W0 (human muscle enolase; 3 h): 80.1%
- Wi / K(2)i (human muscle enolase; relative to unmodified enolase control K2 at same time, 0 h): 118.3%
- Wi / K(2)i (human muscle enolase; [1]): 113.2%
- Wi / K(2)i (human muscle enolase; [2]): 117.3%
- Wi / K(2)i (human muscle enolase; [3]): 120.1%
- activity of the glycated enzyme relative to unmodified control test (human muscle enolase; in the presence of entanglement elements, throughout the experiment (0-3 h)): 113%-120
- decrease in specific activity (human muscle enolase; sample K1, after 3 hours of glycation, without entanglement elements): approx. 28%
- AGE of Mw 180 and Mw 230 kDa (enolase; control test, glycation in the absence of entanglement elements (path 2, fig. 6)): observed
- AGE of Mw 180 and Mw 230 kDa (enolase; substantive test treated with entanglement elements (path 1, fig. 6)): observed
